Results published in PubChem BioAssay AID602210 (Sanford-Burnham Center for Chemical Genomics, 2012).
The source made the active and inactive calls. How the calls were made is not given here.

Assay: H9c2 cardiomyoblast viability modulators under 2-DG – cell-based, ATPlite luminescence, rat, set 2, myocardial damage modulator project, dose response (AID 602210)
Conditions: H9c2 rat cardiomyoblasts, 2-deoxyglucose-induced death, 2 h

Row | Compound | IC50
1 | COc1ccc(C(=O)O/N=C(/c2ccccc2)c2ccncc2)cc1OC | 15.9 µM (inactive)
2 | CC(C)=NNc1cnnc2ccc([N+](=O)[O-])cc12 | 13.4 µM (inactive)
3 | Nc1nonc1-n1nnc(C(=O)N/N=C/c2ccccn2)c1CNc1ccccc1 | 41.4 µM (inactive)
4 | COc1ccc(-c2cc(C(=O)N(C)Cc3nc4ccccc4c(=O)[nH]3)c3ccccc3n2)cc1OC | 10.3 µM (inactive)
5 | CCOC(=O)C1=C(C)N=c2s/c(=C\c3ccncc3)c(=O)n2C1c1ccc2c(c1)OCO2 (stereo not drawn) | 30.3 µM (inactive)
6 | O=C(Nc1ccccc1)c1nc[nH]c1C(=O)NCCNC(=O)c1[nH]cnc1C(=O)Nc1ccccc1 | 1.17 µM
7 | Brc1ccc(-c2nn3c(-c4ccccn4)nnc3s2)o1 | 42.3 µM (inactive)
8 | COc1cc(-c2cc(NC(C)=O)c3ncc(-c4ccc(C(C)=O)cc4)n3c2)cc(OC)c1OC | 7.42 µM
9 | CC(=O)c1cccc(-c2cnc3c(NC=O)cc(-c4cccc(C(=O)N(C)C)c4)cn23)c1 | 39.7 µM (inactive)
10 | CCOc1cc(-c2cc(-c3ccc(N)cc3)nc(N)c2C#N)ccc1O | 11.8 µM (inactive)
11 | O=C(NCC(=O)N(Cc1cccs1)C(C(=O)NC1CCCC1)c1ccco1)c1cccs1 (stereo not drawn) | 24.5 µM (inactive)
12 | Cn1c(-n2c(CCCN3C(=O)c4ccccc4C3=O)nc3ccccc3c2=O)nc2ccccc21 | > 79 µM (inactive)
13 | O=C(NCCc1c[nH]c2ccccc12)C(=O)NCC(c1ccco1)N1CCN(c2ccccc2F)CC1 (stereo not drawn) | > 79 µM (inactive)
14 | NC(=O)COc1ccc2oc(=O)cc(-c3cc4ccccc4o3)c2c1 | 17.2 µM (inactive)
15 | COc1cc(/C=N/NC(=O)c2ccncc2)ccc1OC(=O)c1ccccc1Cl | 15.8 µM (inactive)
16 | COc1ccc(/C=N/NC(=O)c2ccc(COc3cccc4cccnc34)cc2)cc1OC | 12.1 µM (inactive)
17 | COc1cc(C(=O)N/N=C/c2ccc(OC(=O)c3cccc(C)c3)c(OC)c2)ccc1O | 14.2 µM (inactive)
18 | COc1cc(/C=C(\C#N)C(=O)Nc2ccccc2F)ccc1OCCN1CCOCC1 | 41.2 µM (inactive)
19 | Cn1c(C(=O)NCCc2ccsc2)cc2c(=O)n(C)c3ccccc3c21 | 11.3 µM (inactive)
20 | Cc1ccc2nsnc2c1S(=O)(=O)N(Cc1ccco1)Cc1cc2cccc(C)c2[nH]c1=O | > 79 µM (inactive)
21 | COc1cccc(C(=O)Nc2c(C(N)=O)oc3ccccc23)c1 | 15.1 µM (inactive)
22 | CCOC(=O)N1CCC(n2c(SCC(=O)N3CCC(C)CC3)nc3ccccc3c2=O)CC1 | 31.6 µM (inactive)

Row | Compound | IC50
23 | Cc1cc(C)cc(OCC(=O)Nc2cccc(-c3nc4ncccc4o3)c2)c1 | 14.3 µM (inactive)
24 | CCN(C[C@H]1N[C@@](C)(C(=O)OC)[C@H]2C(=O)N(Cc3ccccc3)C(=O)[C@@H]12)C(=O)c1ccc(C(C)(C)C)cc1 | 17.9 µM (inactive)
25 | COc1ccc(C(=O)Nc2cccc(NC(=O)c3ccc(OC)c(OC)c3)n2)cc1OC | 5.47 µM
26 | Cc1cc(N)n(-c2nc(-c3cccnc3)nc3ccccc23)n1 | 26.1 µM (inactive)
27 | COc1ccc(C(C(=O)NCc2ccccc2)N(Cc2ccco2)C(=O)c2snc(C(N)=O)c2N)cc1 (stereo not drawn) | 6.17 µM
28 | CCOc1cc(/C=C/c2ccc3cccc([N+](=O)[O-])c3n2)ccc1OCC(=O)N(C)C | 18.3 µM (inactive)
29 | O=C(c1cc(=O)[nH]c2ccccc12)N1CCN(S(=O)(=O)c2ccc(Cl)cc2)CC1 | 7.15 µM
30 | COc1ccnc(Oc2ccccc2)c1C(=O)N/C=N/OCc1ccc(F)cc1Cl | 8.39 µM
31 | Nc1cc2[nH]c(=O)c3ccccc3c2cc1[N+](=O)[O-] | 24.4 µM (inactive)
32 | Cc1ccc(C(C(=O)NCc2ccccc2)N(Cc2ccco2)C(=O)c2snc(C(N)=O)c2N)o1 (stereo not drawn) | 8.59 µM
33 | CC(=O)Nc1ccc(NS(=O)(=O)c2cc(-c3n[nH]c(=O)c4ccccc34)ccc2C)cc1 | 44 µM (inactive)
34 | Cc1c(C(=O)Nc2ccc3nc(N4CCOCC4)sc3c2)oc2ccccc12 | 15.8 µM (inactive)
35 | COc1ccc(CNn2c(-c3cccs3)nc3ccccc3c2=O)cc1OC | 12.9 µM (inactive)
36 | CC1CN(c2nn3c(=O)c4ccccc4nc3c3ccccc23)CC(C)O1 (stereo not drawn) | > 79 µM (inactive)
37 | CC(=O)c1cccc(Nc2nc3ccccc3n3cnnc23)c1 | 8.67 µM
38 | CCOC(=O)C1CCN(C(=O)c2ccc3c(=O)n4nc(Nc5ccccc5OC)sc4nc3c2)CC1 | 15.9 µM (inactive)
39 | C[C@H](CO)N1C[C@H](C)[C@@H](CN(C)S(=O)(=O)c2ccc(F)cc2)Oc2ccc(NC(=O)Nc3ccc4c(c3)OCO4)cc2C1=O | 48.8 µM (inactive)
40 | COc1ccc(OC)c(NC(=O)COC(=O)c2c3c(nc4ccccc24)CCCC3)c1 | 7.78 µM
41 | O=C(NC1CCCCC1)C(c1ccc2ncccc2c1)N(Cc1cccs1)C(=O)c1cccs1 (stereo not drawn) | 27.4 µM (inactive)
42 | CC(=O)Nc1cccc(-c2cc(NC(C)=O)c3ncc(-c4cccc(C(C)=O)c4)n3c2)c1 | 13.1 µM (inactive)
43 | O=C(NC1CCCCC1)C(c1ccc2ncccc2c1)N(Cc1ccccc1)C(=O)c1ccc2c(c1)OCCO2 (stereo not drawn) | 29.4 µM (inactive)
44 | CC(=O)Nc1cc(-c2ccc(C(=O)N3CCOCC3)cc2)cn2c(-c3ccc(C(C)=O)cc3)cnc12 | 27.1 µM (inactive)

Row | Compound | IC50
45 | CN(C)S(=O)(=O)n1cc(/C=C(\NC(=O)c2ccccc2F)C(=O)NCCN2CCOCC2)c2ccccc21 | > 79 µM (inactive)
46 | COc1ccc(CSc2nc3ccccc3c(=O)[nH]2)cc1F | > 79 µM (inactive)
47 | COc1cc(-c2cc(NC(C)=O)c3ncc(-c4ccc(F)cc4)n3c2)cc(OC)c1OC | 8.78 µM
48 | CCOC(=O)c1nn(-c2cccc(OC)c2)c2nc(Nc3ccccc3)cc(=O)n12 | > 79 µM (inactive)
49 | COc1cccc(Nc2nc3ccccc3n3nnnc23)c1 | > 79 µM (inactive)
50 | O=C(CN1C(=O)C2C3C=CC(C3)C2C1=O)Nc1nc(-c2ccccn2)cs1 (stereo not drawn) | 24.7 µM (inactive)
51 | COc1ccc(-c2ccc3[nH]c4c(c3c2)CCN2C[C@H]3[C@H](C)ON(C)[C@H]3C[C@@H]42)cc1 | 29.8 µM (inactive)
52 | CCOC(=O)N1CCN(C(=O)CSc2nc3c(cnn3-c3ccc(C)cc3)c(=O)[nH]2)CC1 | > 79 µM (inactive)
53 | CCOC(=O)C1=C(COC(=O)c2cc(OC)c(OC)c(OC)c2)NC(=O)NC1C (stereo not drawn) | 42.8 µM (inactive)
54 | COc1ccccc1NC(=O)CSc1ccc2nnc(-c3ccc(C)cc3)n2n1 | > 79 µM (inactive)
55 | CCOC(=O)c1ccc(NC(=O)c2nc[nH]c2C(=O)NCCCCCNC(=O)OC(C)(C)C)cc1 | 6.6 µM
56 | COc1cccc(-c2cnc3c(NC=O)cc(-c4cccc(NC(C)=O)c4)cn23)c1 | 6.84 µM
57 | COc1cc(OC)cc(C(=O)Nc2ccc(C(=O)Nc3ccccc3OC)cc2)c1 | 16.6 µM (inactive)
58 | O=C(N/N=C/c1ccccn1)c1ccc(NC(=O)c2cccc([N+](=O)[O-])c2)cc1 | > 79 µM (inactive)
59 | CCOc1cccc(-c2nn3c(-c4ccccn4)nnc3s2)c1 | 30.2 µM (inactive)
60 | O=C(Nc1cccc(NC(=O)c2ccc([N+](=O)[O-])o2)c1)c1ccco1 | 3.85 µM
61 | C/C(=N\Nc1nnc2c3ccccc3n(C)c2n1)c1ccc(C)o1 | 12.3 µM (inactive)
62 | CCOC(=O)C1=C(CC)Nc2ccccc2N=C1NC(=O)c1ccc(S(=O)(=O)N(C)C)cc1 | > 79 µM (inactive)
63 | Cc1cc(C)c(C)c(S(=O)(=O)N2CCN(C(=O)c3cc(=O)[nH]c4ccccc34)CC2)c1C | 5.01 µM
64 | COc1cccc(/C=N/NC(=O)c2ccncc2)c1OC(=O)c1ccc(Br)cc1 | 28.3 µM (inactive)
65 | Cc1ccc2nc(-c3ccccc3)cc(C(=O)NNC(=O)c3csc(N4CCOCC4)n3)c2c1 | 12.4 µM (inactive)
66 | COc1cccc(-c2nn(-c3ccccc3)cc2C(=O)Nc2nccs2)c1 | 16.3 µM (inactive)

Row | Compound | IC50
67 | O=C(c1cc2nc(-c3ccccc3)cc(-c3ccccc3)n2n1)N1CCN(C(=O)c2ccco2)CC1 | 10.3 µM (inactive)
68 | Cc1ccccc1C1c2[nH]c3ccccc3c2C[C@H]2C(=O)N(c3ccccc3C(=O)NCCCN3CCOCC3)C(=O)N12 (stereo partly drawn) | 46 µM (inactive)
69 | COc1ccc(CCNC(=O)c2cc3c(C)nccc3[nH]c2=O)cc1OC | 20.7 µM (inactive)
70 | O=C(Nc1cccc(/C=C/c2ccccn2)c1)c1ccc(-n2cncn2)cc1 | > 79 µM (inactive)
71 | COc1cc(/C=C(\C#N)C(=O)Nc2ccccc2)ccc1OCCN1CCOCC1 | > 79 µM (inactive)
72 | COc1ccc(C(=O)COC(=O)C(CCCCN2C(=O)C3C4C=CC(C4)C3C2=O)N2C(=O)C3C4C=CC(C4)C3C2=O)cc1 (stereo not drawn) | 11.8 µM (inactive)
73 | O=c1oc2ccc3ccccc3c2cc1-c1nnc(-c2ccccc2)o1 | > 79 µM (inactive)
74 | COc1ccc(-c2cc(C(F)(F)F)n3nc(C(=O)N4CCN(C(=O)c5ccco5)CC4)cc3n2)cc1 | 3.79 µM
75 | CNC(=O)COC(=O)/C=C/c1cn(-c2ccccc2)nc1-c1ccc(C)o1 | 14.6 µM (inactive)
76 | CC(=O)Nc1cccc(-c2cc(NC(C)=O)c3ncc(-c4ccccc4)n3c2)c1 | 12.2 µM (inactive)
77 | CC(C)(C)OC(=O)NCC12C=CC(O1)C1C(=O)N(Cc3ccccc3)C(=O)C12 (stereo not drawn) | 21.5 µM (inactive)
78 | COc1ccc(C(=O)Nc2nc(-c3ccccn3)cs2)cc1S(=O)(=O)N1CCOCC1 | 26.8 µM (inactive)
79 | O=C(O)c1ccc2c(c1)S(=O)(=O)c1cc(N3CCN(c4cnccn4)CC3)ccc1C2=O | 18.6 µM (inactive)
80 | Cc1ccc(-c2nnc3ccc(SCC(=O)N4CCCc5ccccc54)nn23)cc1 | 14 µM (inactive)
81 | CCOC(=O)c1cc(-c2nnc(-c3cc(OC)c(OC)c(OC)c3)o2)c(C)nc1C | 3.44 µM
82 | COc1ccc(-c2cc(NC(C)=O)c3ncc(-c4ccc(OC)c(OC)c4)n3c2)cc1OC | 14.8 µM (inactive)
83 | NC(=O)c1cc2ccccc2o/c1=N\NC(=O)c1ccc(F)cc1 | 7.99 µM
84 | COc1ccc(C(=O)Nc2cccc(/C(C)=N/NC(=O)c3ccc([N+](=O)[O-])c(C)c3)c2)cc1OC | 18.7 µM (inactive)
85 | CCN(CC)S(=O)(=O)c1ccc(N2CCOCC2)c(NC(=O)c2cc(-c3ccccn3)nc3ccccc23)c1 | 4.51 µM
86 | COc1ccc(Nc2nnc(-c3ccc(O)cc3)c3ccccc23)cc1C(N)=O | > 79 µM (inactive)
87 | CC1Nc2ncnc(N3CCN(c4ccccc4)CC3)c2N(Cc2ccc(Cl)cc2)C1=O (stereo not drawn) | 21.4 µM (inactive)
88 | NC(=O)c1nsc(C(=O)N(c2ccccc2)C(C(=O)NC2CCCC2)c2ccc3ncccc3c2)c1N (stereo not drawn) | 6.5 µM
